The text below walks through data of US6563024B1, “Process for transformation of mature trees of Eucalyptus plants” (OJI Paper Co., Ltd., priority 1999, dated 2003).

Assay [1] deals with precocious branches of Eucalyptus camaldulensis. Nature of the assay: Transgenic calli formation after infection induction treatment of precocious branches with NAA, then Agrobacterium tumefaciens EHA101/pIG121-Hm infection. To be noted: 30 days. The class given is cell-based. Here is the method: Culturing was performed for 7 to 14 days at a temperature of 26 to 28° C. under dark conditions. After cutting the precocious branches subjected to the infection induction treatment to segments of 2 to 10 mm length with a knife, the segments were immersed in the culture medium of Agrobacterium tumefaciens strain EHA101/pIG121-Hm prepared according to the method described above. After wiping off the culture medium adhered to the segments of the precocious branches with filter paper, the sections of the precocious branches were embedded in an infection medium containing 2 mg/l NAA, 0.2 mg/l 4-PU, 1 mM galactose, 10 μM acetosyringone, 3% sucrose and 0.02% gellan gum in B5 basal medium, followed by stationary-culturing for 2 days at a temperature of 26° C. and under dark conditions to infect the precocious branches with Agrobacterium tumefaciens. With the exception of inducing precocious branches from three Eucalyptus camaldulensis plants, and performing infection induction treatment with the concentration of NAA in the precocious branch infection induction medium at 0, 0.02, 0.2 or 2.0 mg/l, the precocious branches were infected with Agrobacterium tumefaciens strain EHA101/pIG121-Hm in the same manner as described in Example 1, and the number of transgenic calli that express intron GUS gene was investigated 30 days after the start of the infection induction treatment. For plant 1, the case of testing precocious branches of the untreated group on which infection treatment was not performed, transformation efficiency of 23.1% was obtained. […] In addition, in the untreated group of plant 2 as well in which infection was difficult, transgenic calli were observed following infection induction by NAA. One the basis of these findings, infection induction treatment of precocious branches was clearly shown to be effective in improving transformation efficiency.

The test system is the same in assay [2]. Briefly: Transgenic calli formation with varied NAA concentration in infection medium and sterilization medium. Format: cell-based. To be noted: 4-PU 0.2 mg/l. As for the experimental part:
After cutting the precocious branches subjected to the infection induction treatment to segments of 2 to 10 mm length with a knife, the segments were immersed in the culture medium of Agrobacterium tumefaciens strain EHA101/pIG121-Hm prepared according to the method described above. After wiping off the culture medium adhered to the segments of the precocious branches with filter paper, the sections of the precocious branches were embedded in an infection medium containing 2 mg/l NAA, 0.2 mg/l 4-PU, 1 mM galactose, 10 μM acetosyringone, 3% sucrose and 0.02% gellan gum in B5 basal medium, followed by stationary-culturing for 2 days at a temperature of 26° C. and under dark conditions to infect the precocious branches with Agrobacterium tumefaciens. The explant segments treated as described above were transplanted to a sterilization medium containing 2 mg/l NAA, 0.2 mg/l 4-PU or 4CPPU, 3% sucrose, and 500 mg/l of carbenicillin as antibiotic for sterilizing Agrobacterium attached to the explant segments, and were vertical-rotary-cultured for 7 - days at a temperature of 26° C. and rotating speed of 2 rpm under dark conditions to sterilize the Agrobacterium tumefaciens. With the exception of inducing precocious branches from a different plant of Eucalyptus camaldulensis, and the NAA concentrations used in the infection medium and sterilization medium, the precocious branches were infected with agrobacterium tumefaciens strain EHA101/pIG121-Hm in the same manner as described in Example 1 to produce transgenic calli.

The structures appear in SMILES notation. Where “and” joins values, the source holds several entries; their conditions need not be identical. Identical values can stand only once.

Turning to `O=C(O)Cc1cccc2ccccc12` [NAA, naphthaleneacetic acid], the “Transformation efficiency = No. of transgenic calli/No. of tested segments × 100” value is 72.9% and 73% in assay [1] (plant No. 1, NAA 0.02 mg/l in infection induction medium); 64% in assay [1] (plant No. 1, NAA 0.2 mg/l in infection induction medium); 49% in assay [1] (plant No. 1, NAA 2.0 mg/l in infection induction medium); 8% in assay [1] (plant No. 2, NAA 0.02 mg/l in infection induction medium); 31% in assay [1] (plant No. 2, NAA 0.2 mg/l in infection induction medium); 19% in assay [1] (plant No. 2, NAA 2.0 mg/l in infection induction medium). Further, the “Transformation efficiency = No. of transgenic calli/No. of tested segments × 100” value in assay [1] (plant No. 3, NAA 0.02 mg/l in infection induction medium) is recorded as 69%; in assay [1] (plant No. 3, NAA 0.2 mg/l in infection induction medium), 38%; in assay [1] (plant No. 3, NAA 2.0 mg/l in infection induction medium), 59%. For the same compound, the Transformation efficiency in assay [2] (infection medium NAA 0.02 mg/l, sterilization medium NAA 0.02 mg/l) was found to be 14%; in assay [2] (infection medium NAA 0.02 mg/l, sterilization medium NAA 2 mg/l) it was 4%; in assay [2] (infection medium NAA 2 mg/l, sterilization medium NAA 0.02 mg/l), 11%; in assay [2] (infection medium NAA 2 mg/l, sterilization medium NAA 2 mg/l) it was 42%.
